# Tests used:
# Type in all cases: cell-based
# [1] = system: panel of haematalogical cancer cell lines; assay: Compound A with BTK inhibitors, 72-hour in vitro proliferation assays; conditions: combination Compound A × listed BTK inhibitor, 72-hour proliferation
# HCC1806 = assay: Compound A + paclitaxel cell viability combination assay (Cell Titer Glo, Bliss synergy); conditions: Homo sapiens, read-out: Percent Inhibition
# Procedure: Cells were passaged according to ATCC guidelines with 0.25% Trypsin/EDTA (1× GIBCO-25200).
# Viability assessments were performed using Cell Titer Glo™ (Promega #G9241) according to manufactures microwell plate protocol and read for luminescence on Synergy Neo2 plate reader.
# For synergy matrix assays, TNBC cell lines were seeded 10,000 cells per well in clear-bottomed white 96-well plates (Corning #3909) in 100 μL of recommended cell culture medium. Plates were incubated at 37° C. and 100% RH for 20 hours prior to compound exposure.
# Cells were then exposed to compound A with the same checkerboard matrix using D300 dispenser and incubated for 48 hours prior to measurement of viability by Cell Titer Glo.
# Calculated values were compared to experimental results generated in the sixty-three-concentration checkerboard. Synergy or antagonism scores were generated depending on whether the observed growth inhibition was greater than or less than the calculated values, respectively.
# These differences were summed up across the whole checker-board (sixty-three wells) to give cumulative synergy and antagonism scores with units of μM^2% to reflect the 2D surface of the dose responses.
# Data for combination assays is presented in three formats.
# [2] = system: panel of breast cancer cell lines; assay: Compound A with targeted agents and chemotherapies, 72-hour in vitro proliferation assays
structure (smiles),measurement,setting,value
CC#CC(=O)N1CCC[C@H]1c1nc(-c2ccc(C(=O)Nc3ccccn3)cc2)c2c(N)nccn12 [Acalabrutinib],Best CI,[1]; HBL-1 cells,0.09
same,Best CI Level,[1]; HBL-1 cells,55
same,Bliss Volume,[1]; HBL-1 cells,4.86
same,HSA volume,[1]; HBL-1 cells,9.39
same,Loewe Volume,[1]; HBL-1 cells,9.09
same,Synergy Score,[1]; HBL-1 cells,7.28
same,Best CI,[1]; OCI-Ly10 cells,0.69
same,Best CI Level,[1]; OCI-Ly10 cells,80
same,Bliss Volume,[1]; OCI-Ly10 cells,−1.82
same,HSA volume,[1]; OCI-Ly10 cells,0.62
same,Loewe Volume,[1]; OCI-Ly10 cells,−0.84
same,Synergy Score,[1]; OCI-Ly10 cells,1.59
same,Best CI,[1]; SU-DHL-2 cells,0.39
same,Best CI Level,[1]; SU-DHL-2 cells,20
same,Bliss Volume,[1]; SU-DHL-2 cells,1.10
same,HSA volume,[1]; SU-DHL-2 cells,1.30
same,Loewe Volume,[1]; SU-DHL-2 cells,2.29
same,Synergy Score,[1]; SU-DHL-2 cells,1.76
same,Best CI,[1]; SU-DHL-4 cells,0.90
same,Best CI Level,[1]; SU-DHL-4 cells,80
same,Bliss Volume,[1]; SU-DHL-4 cells,0.66
same,HSA volume,[1]; SU-DHL-4 cells,−3.54
same,Loewe Volume,[1]; SU-DHL-4 cells,−2.10
same,Synergy Score,[1]; SU-DHL-4 cells,1.02
same,Best CI,[1]; SU-DHL-8 cells,0.79
same,Best CI Level,[1]; SU-DHL-8 cells,20
same,Bliss Volume,[1]; SU-DHL-8 cells,3.28
same,HSA volume,[1]; SU-DHL-8 cells,−5.31
same,Loewe Volume,[1]; SU-DHL-8 cells,−3.08
same,Synergy Score,[1]; SU-DHL-8 cells,0.52
same,Best CI,[1]; TMD8 cells,0.09
same,Best CI Level,[1]; TMD8 cells,80
same,Bliss Volume,[1]; TMD8 cells,2.07
same,HSA volume,[1]; TMD8 cells,3.89
same,Loewe Volume,[1]; TMD8 cells,2.90
same,Synergy Score,[1]; TMD8 cells,3.60
same,Best CI,[1]; U-2932 cells,0.49
same,Best CI Level,[1]; U-2932 cells,65
same,Bliss Volume,[1]; U-2932 cells,5.67
same,HSA volume,[1]; U-2932 cells,7.07
same,Loewe Volume,[1]; U-2932 cells,7.67
same,Synergy Score,[1]; U-2932 cells,4.74
"CC(=O)O[C@H]1C(=O)[C@@]2(C)[C@H]([C@H](OC(=O)c3ccccc3)[C@]3(O)C[C@H](OC(=O)[C@H](O)[C@@H](NC(=O)c4ccccc4)c4ccccc4)C(C)=C1C3(C)C)[C@]1(OC(C)=O)CO[C@@H]1C[C@@H]2O [Paclitaxel, reference compound]",inhibition at 0.0005 µM,HCC1806,2.3%
same,inhibition at 1 µM,HCC1806,64.8%
same,inhibition at 3 µM,HCC1806,69.9%
same,Best CI,[2]; 72 h,0.32
same,Best CI,"[2]; AU565 cell line, compound A × partner, 72-hour proliferation",0.19
same,Best CI,"[2]; BT-20 cell line, compound A × partner, 72-hour proliferation",0.05
same,Best CI,"[2]; BT-474 cell line, compound A × partner, 72-hour proliferation",0.16
same,Best CI,"[2]; BT-549 cell line, compound A × partner, 72-hour proliferation",0.27
same,Best CI,"[2]; CAL-51 cell line, compound A × partner, 72-hour proliferation",0.50
same,Best CI,"[2]; CAL-85-1 cell line, compound A × partner, 72-hour proliferation",0.23
same,Best CI,"[2]; CAL-148 cell line, compound A × partner, 72-hour proliferation",0.25
same,Best CI,"[2]; CAMA-1 cell line, compound A × partner, 72-hour proliferation",0.05
same,Best CI,"[2]; DU-4475 cell line, compound A × partner, 72-hour proliferation",0.57
same,Best CI,"[2]; EVSA-T cell line, compound A × partner, 72-hour proliferation",0.26
same,Best CI,"[2]; HCC38, compound A × partner, 72-hour proliferation",0.21
same,Best CI,"[2]; HCC70, compound A × partner, 72-hour proliferation",0.14
same,Best CI,"[2]; HCC1143, compound A × partner, 72-hour proliferation",0.35
same,Best CI,"[2]; HCC1569, compound A × partner, 72-hour proliferation",0.41
same,Best CI,"[2]; HCC1806, compound A × partner, 72-hour proliferation",0.10
same,Best CI,"[2]; HCC1937, compound A × partner, 72-hour proliferation",0.18
same,Best CI,"[2]; HCC1954, compound A × partner, 72-hour proliferation",0.05
same,Best CI,"[2]; HCC2218, compound A × partner, 72-hour proliferation",0.55
same,Best CI,"[2]; HDQ-P1, compound A × partner, 72-hour proliferation",0.82
same,Best CI,"[2]; HMC-1-8, compound A × partner, 72-hour proliferation",0.11
same,Best CI,"[2]; JIMT-1, compound A × partner, 72-hour proliferation",0.50
same,Best CI,"[2]; MCF7 cells, Compound A × partner agent, 72-hour proliferation",0.32
same,Best CI,"[2]; MDA-MB-175-VII cells, Compound A × partner agent, 72-hour proliferation",0.13
same,Best CI,"[2]; MDA-MB-231 cells, Compound A × partner agent, 72-hour proliferation",0.33
same,Best CI,"[2]; MDA-MB-361 cells, Compound A × partner agent, 72-hour proliferation",0.50
same,Best CI,"[2]; MDA-MB-436 cells, Compound A × partner agent, 72-hour proliferation",0.68
same,Best CI,"[2]; MDA-MB-453 cells, Compound A × partner agent, 72-hour proliferation",0.07
same,Best CI,"[2]; MDA-MB-468 cells, Compound A × partner agent, 72-hour proliferation",0.27
same,Best CI,"[2]; SK-BR-3 cells, combination of compound A with the named agent, 72-hour proliferation",0.70
same,Best CI,"[2]; SUM159PT cells, combination of compound A with the named agent, 72-hour proliferation",0.06
same,Best CI,"[2]; T47D cells, combination of compound A with the named agent, 72-hour proliferation",0.08
same,Best CI,"[2]; ZR-75-1 cells, combination of compound A with the named agent, 72-hour proliferation",0.07
same,Best CI,"[2]; ZR-75-30 cells, combination of compound A with the named agent, 72-hour proliferation",0.41
